Columns and labels:
[1] = system: Hepatitis C virus; assay: Antiviral activity against HCV in Huh 5-2 cells; format: functional, organism-based, Hepacivirus hominis
[2] = Selectivity index, ratio of CC50 for MDBK cells to EC50 for BVDV; format: functional
[3] = system: Bovine viral diarrhea virus 1; assay: Antiviral activity against BVDV in MDBK cells; format: functional, organism-based; conditions: Bovine viral diarrhea virus isolates and strains
[4] = Cytotoxicity against Huh 5-2 cells; format: cell-based; conditions: human
[5] = Selectivity index, ratio of CC50 for Huh 5-2 cells to EC50 for HCV; format: functional
[6] = Cytotoxicity against MDBK cells; format: cell-based, Bos taurus; conditions: cattle

SMILES | EC50 [1] | Ratio CC50/EC50 [2] | EC50 [3] | CC50 [4] | Ratio CC50/EC50 [5] | CC50 [6]
Fc1cccc(-c2nc3ccn(Cc4ccc(OC(F)(F)F)cc4)cc-3n2)c1F | 0.2 µM | >500 | 0.2 µM | 81 µM | 405 | > 100 µM
Fc1ccccc1-c1nc2ccn(CCOc3ccccc3)cc-2n1 | 48 µM | >371 | 0.28 µM | 96 µM | 2 | > 104 µM
